According to the OPERA property sets (Mansouri et al. 2018):

logP	SMILES
4.3	COc1ccc(-c2ncc(Cl)nc2-c2ccc(OC)cc2)cc1
2.52	Cc1cnc(-c2ccc(C#N)cc2)c(-c2ccc(C#N)cc2)n1
5	CCOc1cnc(-c2ccc(OC)cc2)c(-c2ccc(OC)cc2)n1
3.66	[O-][n+]1cc(Cl)nc(-c2ccc(Cl)cc2)c1-c1ccc(Cl)cc1
5.18	COc1ccccc1Cc1cnc(-c2ccccc2)c(-c2ccccc2)n1
4.28	Cc1nc(-c2ccccc2)cnc1-c1ccccc1
2.07	c1ccc(-c2cnccn2)cc1
4.73	CCOc1cnc(-c2ccccc2)c(-c2ccccc2)n1
3.41	COC(=O)c1cnc(-c2ccc(OC)cc2)c(-c2ccc(OC)cc2)n1
3.19	c1ccc(-c2nccnc2-c2ccccc2)cc1
3.75	Cc1cnc(-c2ccc(F)cc2)c(-c2ccc(F)cc2)n1
0.19	Cc1ncc(C)[n+]([O-])c1Cl
2.24	COc1ccc(-c2cnccn2)cc1
4.22	CCc1cnc(-c2ccc(OC)cc2)c(-c2ccc(OC)cc2)n1
4.83	CCc1nc(CC)c(-c2ccccc2)nc1-c1ccccc1
3.42	COc1ccc(-c2nccnc2-c2ccc(OC)cc2)cc1

logP	SMILES
3.7	COc1ccc(-c2ncc(C#N)nc2-c2ccc(OC)cc2)cc1
1.08	Cc1nc(Cl)c(C)[n+]([O-])c1Cl
4.05	Clc1cnc(-c2ccccc2)c(-c2ccccc2)n1
0.44	Cc1c[n+]([O-])c(C)c(Cl)n1
4.1	Cc1ccc(-c2nccnc2-c2ccc(C)cc2)cc1
3.41	[O-][n+]1ccnc(-c2ccc(Br)cc2)c1-c1ccc(Br)cc1
4.21	COc1cnc(-c2ccccc2)c(-c2ccccc2)n1
4.71	CC(C)c1cnc(-c2ccccc2)c(-c2ccccc2)n1
3.66	COc1ccc(-c2ncc(C)nc2-c2ccc(OC)cc2)cc1
5.2	COc1cccc(Cc2cnc(-c3ccccc3)c(-c3ccccc3)n2)c1
3.52	Cc1cnc(-c2ccccc2)c(-c2ccccc2)n1
2.4	Cc1nc(Cl)c(C)nc1Cl
4.47	COc1ccc(-c2ncc(OC)nc2-c2ccc(OC)cc2)cc1
4.1	COc1ccc(-c2nc(C)c(C)nc2-c2ccc(OC)cc2)cc1
4.29	Cc1ncc(-c2ccccc2)nc1-c1ccccc1
4.66	CCc1ncc(-c2ccccc2)nc1-c1ccccc1
